Reference: patent US8178133B2, “Magnesium compositions and uses thereof” (Magceutics, Inc., priority 2007, dated 2012)

What was measured:
[1] = tested on: mice genetically altered to present symptoms of Alzheimer's disease (AD); assay: Modified Morris water maze test in AD mice; type: in vivo; conditions: AD mice aged 13 months
Method: Another group, the control group, of 10 mice that were genetically altered to present symptoms of AD were fed a Control Diet, a diet of normal solid food and water, for 30 days.
The pool used was a pool of water in a circular metal tank (150 cm in diameter and 50 cm in depth) having a water height of 30 cm and a water temperature that was maintained at ˜22° C. The pool was placed in a moderately lit area and surrounded by a black curtain. An acrylic platform (15 cm in diameter) was placed 2 cm below the surface of the water in the middle of one quadrant of the pool, equidistant from the center and the edge of the pool. Outside the pool, a cue was placed so as to be visible to a mouse in the maze, allowing a mouse to use it as a landmark for spatial orientation. The cue remained unchanged throughout the test period.
On the first day of the training and testing period, the water in the pool was transparent, such that the platform was visible. Each mouse was trained to swim towards the platform and to stand on the platform so as not to be submerged in the pool. […] The amount of time the mouse took to find the platform, referred to as “escape latency,” was recorded for each trial.
On the second day of the training and testing period, a small quantity of milk was added to the water in the pool, such that the pool was opaque and the platform was no longer visible. […]

aging rats = assay: Novel object recognition test in rats; type: in vivo, Sprague-Dawley rats
[2] = tested on: young and aging/aged rats; assay: Elevated T-maze test, spatial working memory; type: in vivo, Sprague Dawley (SD) rats; conditions: MgCl2 diet
Method: Twenty 2-month old, male Sprague Dawley (SD) rats were housed in a temperature-controlled room (22° C. to 25° C.) with a dark period from 08:00 pm to 08:00 am daily. […] Over 7 days before the training and trial period began, each rat was handled and habituated to the maze and to Kellogg's Froot Loop cereal.
Each rat underwent a test of one trial, followed by an interval of 10-minutes, followed by another trial, and so on, for a total of 6 trials in one day. In each trial, each rat went through a sample run in the maze, followed by an interval of 15 seconds, followed by a choice run in the maze. In the sample run, the subject rat was forced to go to the left or to the right by the presence of a block, according to a pseudorandom sequence (with an equal number of left turns and right turns, and no more than two consecutive turns in the same direction). As a reward, Froot Loop cereal was available in the food well at the end of the run, regardless of the direction that was taken by virtue of the block. In the choice run, the block that had been present in the preceding sample run was removed, and the rat was allowed to choose to go to the left or to the right. […]
Three groups of animals (young, aging, and magnesium-treated aging rats) were used. […] Spatial working memory was assessed using a T-maze non-matching-to-place task. […] Spatial working memory was first assessed on an elevated T-maze. […]

[3] = tested on: young (9-month old) and aged (25-month old) rats; conditions: food containing 2% magnesium oxide for 8 days; cited from earlier work

CC12CC3CC(C)(C1)CC(N)(C3)C2 [memantine]
effect on learning capacity, comparison with anti-AD drugs [1]: better at reducing the effects of AD on learning capacity than aricept

[Cl-].[Cl-].[Mg+2] [MgCl2]
novel object exploration preference (aging rats; aging rats 12-14 months, 6 mg/kg MgCl2 from 8 months of age, single training, 10 minute retention interval): preferentially explored the novel object to the same extent as young rats | novel object exploration preference (aging rats; aging rats, single training, 24 hours retention interval): lose there ability to distinguish novel versus familiar objects | novel object exploration preference (aging rats; aging rats, two training sessions (spaced training), 24-hour retention interval): retained a high level of preference | spatial working memory, choice accuracy with increased delay ([2]; 2 and 5 min delays): significantly enhanced the performance of the aging rats | percentage of correct choices, learning of non-matching-to-place task ([2]; 15 sec delay): performed significantly better from their first trials

[O]=[Mg] [magnesium oxide]
cognitive function [3]: some sign of improvement of cognitive function

COc1cc2c(cc1OC)C(=O)C(CC1CCN(Cc3ccccc3)CC1)C2 (centres unmarked) [aricept]
effect on learning capacity, comparison with anti-AD drugs [1]: both being better at reducing the effects of AD on learning capacity than aricept
